Measured values published in PMC10039877 (Scientific Reports, 2023).
Values joined by “and” are separate entries in the source; they are usually repeats but may differ in a detail not shown here. Equal entries are not always repeated. Where two headings read alike, the source gives them in different places.

Experiments:
BChE [1] = target: T1, BChE (Equus caballus, UniProt P81908); assay: biochemical; type: biochemical; settings: in vitro, triplicates
BChE [2] = target: T1, BChE; design: method as in PMID 33759552; settings: in vitro; found in previous study; read-out: BChE IC50 of starting compound; cited from earlier work
BChE [3] = target: T1, BChE; design: method as in PMID 33759552; settings: previous study; cited from earlier work
BChE [4] = target: T1, BChE; assay: Enzyme kinetics study (Lineweaver-Burk plots) of 8c on BChE; type: biochemical
Experimental: The inhibition type was determined by analyzing the Lineweaver–Burk plots.
All common chemicals were purchased from commercial sources and used without further purification. The water used was distilled water. Reaction progress was monitored using analytical thin layer chromatography (TLC, detected by UV light 254 nm) on precoated silica gel HSGF254 plates (Qingdao Haiyang Chemical Plant, China). Column chromatography was performed on silica gel (200 ~ 300 mesh; Qingdao Dingkang Chemical Inc.). […] Proton coupling patterns are described as singlet (s), doublet (d), double doublet (dd), triplet (t), and multiplet (m). ESI–MS date were recorded on a Waters Quattro Premier XE triquadrupole mass spectrometer (Waters Corporation, USA), while ESI-HRMS date were recorded on a Q-TOF Priemier mass spectrometer (Micromass, Manchester, UK). The enzyme kinetic assay was performed on an EnSpire Enzyme Marker (Thermos Fisher, USA).
Kinetic studies were performed in same method as described in BChE inhibition assays. The substrate (BTCI) at five concentrations (from 0.05 to 0.8 mM) was determined for 8c at different […] to reveal its inhibition model, and reciprocal plots of 1/V versus 1/[S]. The kinetic parameters and apparent inhibition constants were calculated by the “Enzyme kinetics” module of Prism.

[5] = read-out: BChE: IC50 (μM) ± SEM
[6] = BTCI substrate 0.05 to 0.8 mM, Lineweaver-Burk

T1 sequence (P81908 whole entry): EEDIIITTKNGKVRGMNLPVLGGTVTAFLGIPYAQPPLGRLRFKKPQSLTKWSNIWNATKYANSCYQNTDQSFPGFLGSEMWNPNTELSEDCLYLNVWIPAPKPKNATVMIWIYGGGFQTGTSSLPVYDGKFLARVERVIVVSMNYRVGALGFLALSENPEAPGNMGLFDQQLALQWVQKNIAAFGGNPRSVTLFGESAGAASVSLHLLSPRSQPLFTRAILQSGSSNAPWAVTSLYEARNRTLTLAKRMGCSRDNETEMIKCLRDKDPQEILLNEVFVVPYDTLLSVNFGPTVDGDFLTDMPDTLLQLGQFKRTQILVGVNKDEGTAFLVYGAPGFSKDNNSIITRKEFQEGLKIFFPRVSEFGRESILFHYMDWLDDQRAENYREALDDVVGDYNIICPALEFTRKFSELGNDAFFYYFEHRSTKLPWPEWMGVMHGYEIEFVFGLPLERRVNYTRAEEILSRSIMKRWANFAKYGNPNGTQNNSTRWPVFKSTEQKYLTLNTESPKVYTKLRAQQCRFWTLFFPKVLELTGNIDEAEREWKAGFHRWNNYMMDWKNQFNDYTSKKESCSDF

Compound	IC50 (BChE [1]; [5])	also measured
Cc1ccccc1NC(=O)CNC(=O)C(=O)c1c[nH]c2ccccc12 [13g, 2-(1H-indol-3-yl)-2-oxo-N-(2-oxo-2-(o-tolylamino)ethyl)acetamide]	> 50 µM	–
COc1ccc(NC(=O)CNC(=O)C(=O)c2c[nH]c3ccccc23)c(OC)c1 [13i, N-(2-((2,4-dimethoxyphenyl)amino)-2-oxoethyl)-2-(1H-indol-3-yl)-2-oxoacetamide]	> 50 µM	–
Cc1ccccc1NC(=O)OCCN(C)C(=O)C(=O)c1c[nH]c2ccccc12 [17c, 2-(2-(1H-indol-3-yl)-N-methyl-2-oxoacetamido)ethyl o-tolylcarbamate]	–	IC50 (BChE [1]; BChE: IC50 (μM) ± SEM): > 50 µM
COc1ccccc1NC(=O)CNC(=O)C(=O)c1c[nH]c2ccccc12 [13a, 2-(1H-indol-3-yl)-N-(2-((2-methoxyphenyl)amino)-2-oxoethyl)-2-oxoacetamide]	> 50 µM	–
CN(CCOC(=O)Nc1cccc(Cl)c1)C(=O)C(=O)c1c[nH]c2ccccc12 [17d, 2-(2-(1H-indol-3-yl)-N-methyl-2-oxoacetamido)ethyl (3-chlorophenyl)carbamate]	–	IC50 (BChE [1]; BChE: IC50 (μM) ± SEM): > 50 µM
Cc1cccc(NC(=O)OCCN(C)C(=O)C(=O)c2c[nH]c3ccccc23)c1 [17a, 2-(2-(1H-indol-3-yl)-N-methyl-2-oxoacetamido)ethyl m-tolylcarbamate]	–	IC50 (BChE [1]; BChE: IC50 (μM) ± SEM): > 50 µM
CCc1ccc(NC(=O)OCCN(C)C(=O)C(=O)c2c[nH]c3ccccc23)cc1 [17b, 2-(2-(1H-indol-3-yl)-N-methyl-2-oxoacetamido)ethyl (4-ethylphenyl)carbamate]	–	IC50 (BChE [1]; BChE: IC50 (μM) ± SEM): > 50 µM
CN(CC(=O)Nc1ccccc1F)C(=O)C(=O)c1c[nH]c2ccccc12 [8a, N-(2-((2-fluorophenyl)amino)-2-oxoethyl)-2-(1H-indol-3-yl)-N-methyl-2-oxoacetamide]	> 50 µM	–
COc1cccc(NC(=O)CN(C)C(C)C(=O)c2c[nH]c3ccccc23)c1 (stereo not drawn) [compound 970180]	–	IC50 (BChE [2]): 4.24 ± 0.16 µM; inhibition type (BChE [3]): mixed-type
Cc1ccc(NC(=O)CNC(=O)C(=O)c2c[nH]c3ccccc23)cc1Cl [13h, N-(2-((3-chloro-4-methylphenyl)amino)-2-oxoethyl)-2-(1H-indol-3-yl)-2-oxoacetamide]	> 50 µM	–
Cc1cc(C)c(NC(=O)CN(C)C(=O)C(=O)c2c[nH]c3ccccc23)c(C)c1 [8c, 2-(1H-indol-3-yl)-N-(2-(mesitylamino)-2-oxoethyl)-N-methyl-2-oxoacetamide]	< 50 µM and 3.95 µM and 3.94 µM	Ki (BChE [4]; [6]): 3.27 µM; Vmax (BChE [4]; [6]): 105.26; inhibition type (BChE [4]; Lineweaver-Burk plot): mixed-type
Cc1ccccc1NC(=O)CN(C)C(=O)C(=O)c1c[nH]c2ccccc12 [8d, 2-(1H-indol-3-yl)-N-methyl-2-oxo-N-(2-oxo-2-(o-tolylamino)ethyl)acetamide]	< 50 µM and 19.6 µM	–
COc1ccc(NC(=O)CNC(=O)C(=O)c2c[nH]c3ccccc23)cc1 [13b, 2-(1H-indol-3-yl)-N-(2-((4-methoxyphenyl)amino)-2-oxoethyl)-2-oxoacetamide]	> 50 µM	–
CCCCc1ccc(NC(=O)CNC(=O)C(=O)c2c[nH]c3ccccc23)cc1 [13d, N-(2-((4-butylphenyl)amino)-2-oxoethyl)-2-(1H-indol-3-yl)-2-oxoacetamide]	> 50 µM	–
COc1cccc(NC(=O)CNC(=O)C(=O)c2c[nH]c3ccccc23)c1 [13j, 2-(1H-indol-3-yl)-N-(2-((3-methoxyphenyl)amino)-2-oxoethyl)-2-oxoacetamide]	> 50 µM	–
Cc1cc(C)cc(NC(=O)CNC(=O)C(=O)c2c[nH]c3ccccc23)c1 [13f, N-(2-((3,5-dimethylphenyl)amino)-2-oxoethyl)-2-(1H-indol-3-yl)-2-oxoacetamide]	> 50 µM	–
O=C(CNC(=O)C(=O)c1c[nH]c2ccccc12)Nc1ccccc1F [13k, N-(2-((2-fluorophenyl)amino)-2-oxoethyl)-2-(1H-indol-3-yl)-2-oxoacetamide]	> 50 µM	–
Cc1ccc(NC(=O)CNC(=O)C(=O)c2c[nH]c3ccccc23)cc1C [13c, N-(2-((3,4-dimethylphenyl)amino)-2-oxoethyl)-2-(1H-indol-3-yl)-2-oxoacetamide]	> 50 µM	–
COc1ccc(NC(=O)CN(C)C(=O)C(=O)c2c[nH]c3ccccc23)c(C)c1 [8b, 2-(1H-indol-3-yl)-N-(2-((4-methoxy-2-methylphenyl)amino)-2-oxoethyl)-N-methyl-2-oxoacetamide]	> 50 µM	–
Cc1cc(C)c(NC(=O)CNC(=O)C(=O)c2c[nH]c3ccccc23)c(C)c1 [13e, 2-(1H-indol-3-yl)-N-(2-(mesitylamino)-2-oxoethyl)-2-oxoacetamide]	> 50 µM	–
